Data on seven molecules can be found in PubChem BioAssay (NCI).

Structures are written as SMILES. Values joined by “and” are separate entries in the source; they are usually repeats but may differ in a detail not shown here. Equal values may be shown once.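 Tested at 5 concentrations; 48 h exposure; 96-well plates; endpoints linearly interpolated, else capped at highest concentration. GI50 = concentration required for 50% inhibition of growth. Definition used: TGI = concentration required for complete inhibition of growth.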

Among the test systems are IGROV1 ovarian; HCC-2998 colon; OVCAR-3 ovarian; KM12 colon; K-562 leukemia; OVCAR-4 ovarian; RPMI-8226 leukemia; M14 melanoma; HCT-15 colon; NCI-H23 lung.
Assay in all cases: NCI anticancer screen, dose series, 48 h

Consider `COC(=O)[C@@H]1c2cc3c(c(O)c2[C@@H](OC2OC(C)C(OC)C(C)(OC)C2OC)C[C@]1(C)O)C(=O)c1c(O)cc2c(c1C3=O)O[C@H]1O[C@]2(C)[C@H](O)[C@@H](N(C)C)[C@@H]1O` (stereo partly drawn), for which the TGI in the test with IGROV1 ovarian is 0.65 µM and 4.74 µM; in the test with HCC-2998 colon it was 0.0305 µM and 0.0223 µM; in the test on KM12 colon it was 0.0425 µM and 0.0508 µM; in the test on K-562 leukemia, 0.399 µM and 0.162 µM; with OVCAR-4 ovarian, 0.291 µM; in the test on RPMI-8226 leukemia it was 0.0557 µM. The TGI with M14 melanoma was 0.14 µM and 0.107 µM; in the test with HCT-15 colon, 1.14 µM; in the test with NCI-H23 lung it was 0.0399 µM and 0.0694 µM. In addition, the GI50 in the test on OVCAR-3 ovarian is 0.0683 µM; with M14 melanoma, 0.0194 µM; in the test with HCT-15 colon, 0.117 µM; with NCI-H23 lung, 0.0141 µM.
As for `Oc1c(Cl)cc(Cl)c(Cl)c1CNCCNCc1c(O)c(Cl)cc(Cl)c1Cl`, the GI50 is 0.951 µM with IGROV1 ovarian; 2.69 µM with HCC-2998 colon; 0.502 µM in the test with OVCAR-3 ovarian; 0.963 µM with KM12 colon; 0.483 µM in the test on K-562 leukemia; 0.41 µM with OVCAR-4 ovarian. Besides, the GI50 was 1.51 µM with RPMI-8226 leukemia, 1.22 µM with M14 melanoma, 0.282 µM in the test on HCT-15 colon and 1.42 µM in the test with NCI-H23 lung. Also, the TGI in the test on IGROV1 ovarian was 7.8 µM; in the test on HCC-2998 colon, > 50 µM; in the test on OVCAR-3 ovarian, 7.08 µM; in the test on KM12 colon, 8 µM; in the test on K-562 leukemia, > 50 µM; in the test with OVCAR-4 ovarian, 7.87 µM. The TGI in the test with RPMI-8226 leukemia is > 50 µM; in the test on M14 melanoma, 26 µM; with HCT-15 colon, 11.6 µM; with NCI-H23 lung it was 9.08 µM.
`Fc1ccc(-c2c(-c3ccncc3)nc3n2CCS3)cc1`: the GI50 in the test with IGROV1 ovarian, with HCC-2998 colon, with OVCAR-3 ovarian, with KM12 colon, with K-562 leukemia and in the test on OVCAR-4 ovarian was > 25 µM each time. Besides, the GI50 with RPMI-8226 leukemia, with M14 melanoma, with HCT-15 colon and with NCI-H23 lung was > 25 µM each time. Further, the TGI in the test with IGROV1 ovarian, in the test on HCC-2998 colon, in the test on OVCAR-3 ovarian, in the test with KM12 colon, with K-562 leukemia and in the test with OVCAR-4 ovarian was > 25 µM throughout. Besides, the TGI with RPMI-8226 leukemia, in the test on M14 melanoma, in the test on HCT-15 colon and in the test with NCI-H23 lung was > 25 µM each time.
Regarding `CNC(=O)c1ccc(N2C(=S)N(c3cnc(C#N)c(C(F)(F)F)c3)C(=O)C23CCC3)cc1F`, the GI50 in the test with IGROV1 ovarian is > 100 µM; in the test on HCC-2998 colon it was > 100 µM; in the test with OVCAR-3 ovarian, > 100 µM; in the test on KM12 colon, > 100 µM; in the test with K-562 leukemia, > 100 µM; with OVCAR-4 ovarian, > 79.2 µM. For the same molecule, the GI50 in the test with RPMI-8226 leukemia is 59.3 µM; in the test on M14 melanoma it was > 100 µM; in the test on HCT-15 colon, > 100 µM; in the test on NCI-H23 lung it was > 100 µM. The TGI in the test with IGROV1 ovarian, in the test on HCC-2998 colon, with OVCAR-3 ovarian, in the test on KM12 colon, in the test with K-562 leukemia and in the test with OVCAR-4 ovarian was > 100 µM throughout. Further, the TGI in the test with RPMI-8226 leukemia, with M14 melanoma, in the test on HCT-15 colon and in the test on NCI-H23 lung was > 100 µM throughout.
Take `O=c1oc2ccc(I)cc2c(=O)n1-c1ccc(Br)cc1F`: the GI50 with IGROV1 ovarian was 0.745 µM; in the test with HCC-2998 colon it was 2.98 µM; in the test with OVCAR-3 ovarian it was 0.511 µM; in the test on KM12 colon it was 2.07 µM; in the test with K-562 leukemia, 0.536 µM; in the test on OVCAR-4 ovarian it was 1.12 µM. Moreover, the GI50 was 0.398 µM in the test with RPMI-8226 leukemia, 0.725 µM in the test with M14 melanoma, 1.28 µM with HCT-15 colon and 0.658 µM in the test on NCI-H23 lung. Moreover, the TGI in the test with IGROV1 ovarian was 13.3 µM; in the test with HCC-2998 colon, 9.5 µM; in the test on OVCAR-3 ovarian, 8.89 µM; in the test with KM12 colon it was 4.69 µM; in the test on K-562 leukemia, > 71.7 µM; with OVCAR-4 ovarian it was 16.5 µM. The TGI in the test on RPMI-8226 leukemia is 2.57 µM; in the test with M14 melanoma it was 4.99 µM; in the test on HCT-15 colon, 7.89 µM; in the test with NCI-H23 lung, 3.99 µM.
Regarding `CCCCCCCCCCCCCCCC1=NCC[N+]1(CCO)CCO`, the GI50 in the test with IGROV1 ovarian was 1.21 µM; with HCC-2998 colon, 1.68 µM; in the test with OVCAR-3 ovarian it was 2.52 µM; in the test on KM12 colon, 1.78 µM; in the test with K-562 leukemia, 1.36 µM; with OVCAR-4 ovarian, 4.75 µM. In addition, the GI50 with RPMI-8226 leukemia was 4.89 µM; in the test with M14 melanoma it was 1.62 µM; in the test with HCT-15 colon, 1.94 µM; with NCI-H23 lung, 2.16 µM. In addition, the TGI in the test with IGROV1 ovarian was found to be 2.63 µM; in the test with HCC-2998 colon, 4.19 µM; with OVCAR-3 ovarian, 5.74 µM; in the test on KM12 colon, 3.52 µM; with K-562 leukemia it was 2.82 µM; with OVCAR-4 ovarian, 26.5 µM. Also, the TGI worked out at 40.5 µM in the test with RPMI-8226 leukemia, 3.01 µM in the test with M14 melanoma, 4.48 µM in the test on HCT-15 colon and 5.08 µM with NCI-H23 lung.
`COc1ccc(Nc2nc3cc(N)cc(N)c3nc2-c2ccccc2)cc1`: the GI50 with IGROV1 ovarian was 15.4 µM; in the test on HCC-2998 colon it was 28.1 µM; with OVCAR-3 ovarian, 17.3 µM; with KM12 colon, 15.9 µM; with K-562 leukemia, 29.8 µM; in the test with OVCAR-4 ovarian it was 10.4 µM. The GI50 with RPMI-8226 leukemia is 19.1 µM; in the test with M14 melanoma it was 17.6 µM; in the test with HCT-15 colon, 15.3 µM; in the test with NCI-H23 lung, 12.5 µM. For the same molecule, the TGI is 35.8 µM with IGROV1 ovarian; > 100 µM in the test on HCC-2998 colon; 37.3 µM with OVCAR-3 ovarian; 30.9 µM in the test with KM12 colon; > 100 µM with K-562 leukemia; 22.1 µM in the test on OVCAR-4 ovarian. The TGI in the test with RPMI-8226 leukemia was > 100 µM; in the test on M14 melanoma, 36.3 µM; with HCT-15 colon, 45 µM; with NCI-H23 lung it was 25.3 µM.
